Patent publication US8008329B2 (Dong Wha Pharmaceutical Co., Ltd., priority 2008, dated 2011)
Marks after values point to notes of the source that are not given here.

System: osteoclast differentiation
Assay: Osteoclast differentiation in co-culture of mouse bone marrow cells and ST2 cells, TRAP staining (Examples 8-9)
Type: cell-based
Conditions: for % number of osteoclast (vs. solvent control group): day 7; for activity at 0.1 µM: Mus musculus, Osteoclast, 168 h, day 7, read-out: % number of osteoclast (vs. solvent control group)
Protocol: The differentiation of osteoclast from mouse bone marrow cells was induced by using co-culture system, and inhibitory effect of the drug on osteoclast differentiation was evaluated by treatment of single or combination formulation. Co-culture was performed using mouse bone marrow cells and ST cells of bone marrow-derived stromal cell.
Femora and tibia were aseptically ectomized from 6˜8 week-old male ddY mice to harvest bone marrow cells by a general method using a syringe. The red blood cells were removed from the bone marrow cells, followed by centrifugation. The bone marrow cells were suspended in α-MEM medium supplemented with 10% fetal bovine serum, and the numbers of the eukaryotic cells in the harvested bone marrow cells were counted and then immediately used for a co-culture system.
ST2 cells (RIKEN Cell Bank, Tsukuba, Japan) were cultured in α-MEM medium supplemented with 10% fetal bovine serum until confluent. Then, these cells were diluted to a desired cell number, and used for the experiment.
The bone marrow cells (1×10^5 cells/well) and ST2 cells (3,000 cells/well) prepared in the above were plated in a 96-well plate using α-MEM medium supplemented with 10% fetal bovine serum. At this time, differentiation factors, 1α,25-dihydroxyvitamin D3 (10^−8 M, hereinbelow, referred to as vitamin D3) and dexamethasone (10^−8 M), were co-added to the medium to induce osteoclast differentiation. The medium was replaced with fresh media containing the differentiation factors every 2 to 3 days.
After 7 days, when multinucleated osteoclasts were observed, the medium was removed from the wells, and then the cells were fixed with PBS containing 10% Formalin. Tartrate-Resistant Acid Phosphatase (hereinbelow, referred to as TRAP) was used as a marker to measure the mature osteoclast in consideration of its characteristics showing a positive reaction to a TRAP staining solution. The TRAP staining solution was prepared in such the manner that a substrate, naphtol AS-MS phosphate and a coloring agent (Fast Red Violet LB salt) were dissolved in N,N-dimethylformamide. A 0.1 N NaHCO3 buffer solution containing 50 mM tartaric acid was added thereto, and the mixture was stored at a refrigerator prior to use as a staining solution. The osteoclasts with 6-7 or more nuclei showing a TRAP-positive reaction were counted under a microscope.
Alendronic acid was dissolved in distilled water at a concentration of 0.1 mM, and benzamidine derivatives were dissolved in DMSO at a concentration of 0.1 mM. All of them were diluted 1,000 fold with the differentiation media to a final concentration of 0.1 μM, respectively. In this connection, a control group was maintained in 0.1% DMSO.
As the above described, the sample substances and cells, which were diluted to the desired concentrations, were plated in 96-well plate, and co-cultured. On days 3 and 5 of culture, the media were replaced with fresh differentiation media containing the sample substances. On day 7 of culture, TRAP staining was performed to count the mature multinucleated osteoclast that was formed by differentiation. The mature osteoclasts with 6 or more nuclei were counted under a microscope. The results were expressed as a percentage (%) of the number of mature osteoclast observed in each experimental group, when the number of mature osteoclast in the control group (solvent only) was regarded as 100%. The experiment was performed with 4 wells per experimental group (n=4), and the results were expressed as mean value±standard deviation. In addition, the experiment was repeated at least two times, and Student t-test was applied for significant difference between experimental groups.
The experiment was performed in the same manner as in Example 8 to evaluate the effect of individual or combination treatment of risedronic acid and benzamidine derivatives of Formula 1 on osteoclast differentiation, except using 0.1 μM risedronic acid instead of 0.1 μM alendronic acid. […]

[1] = Combination treatment (alendronic acid + compounds), 0.1 μM each
[2] = Combination treatment (risedronic acid + compounds), 0.1 μM each
[3] = Individual treatment (compounds), 0.1 μM

| Compound | % number of osteoclast (vs. solvent control group) [1] | % number of osteoclast (vs. solvent control group) [2] | activity at 0.1 µM [3] [%] | % number of osteoclast (vs. solvent control group) [3] [%] |
| --- | --- | --- | --- | --- |
| CCc1sc(-c2cccnc2)nc1-c1ccc(OCCCCCOc2ccc(C(=N)NO)cc2)cc1 [Compound 21, N-hydroxy-4-{5-[4-(5-ethyl-2-pyridin-3-yl-1,3-thiazol-4-yl)phenoxy]pentyloxy}-benzamidine] | 22 ± 7.1^ab % | 47 ± 10.1% | 52 ± 10.4 | – |
| Cc1sc(N2CCOCC2)nc1-c1ccc(OCCCCCOc2ccc(C(=N)NO)cc2)cc1 [Compound 165, N-hydroxy-4-{5-[4-(5-methyl-2-morpholino-1,3-thiazol-4-yl)phenoxy]pentyloxy}-benzamidine] | 29 ± 7.5^ab % | 30 ± 3.1^ac % | 75 ± 3.8 | – |
| Cc1nc(-c2ccc(OCCCCCN(C)c3ccc(C(=N)NO)cc3)cc2)c(C(C)C)s1 [Compound 183, N-hydroxy-4-({5-[4-(5-isopropyl-2-methyl-1,3-thiazol-4-yl)-phenoxy]-pentyl}-methyl-amino)-benzamidine] | 26 ± 6.1^ab % | 37 ± 5.3^ac % | 66 ± 7.4 | – |
| CN(CCN1CCOCC1)c1nc(-c2ccc(OCCCCCOc3ccc(C(=N)NO)cc3)cc2)c(CC2CCCC2)s1 [Compound 148, N-hydroxy-4-[5-(4-{5-cyclopentylmethyl-2-[methyl-(2-morpholinoethyl)amino]-1,3-thiazol-4-yl}phenoxy)pentyloxy]-benzamidine] | 33 ± 8.3^ab % | 19 ± 2.4^a % | 65 ± 4.3 | – |
| Cc1nc(-c2ccc(OCCCCCOc3ccc(C(=N)NO)cc3)cc2)c(N(C)C)s1 [Compound 326, N-hydroxy-4-{5-[4-(5-dimethylamino-2-methyl-thiazol-4-yl)-phenoxy]-pentyloxy}-benzamidine] | 34 ± 2.7^b % | 15 ± 6.0^ac % | 46 ± 11 | – |
| Cc1nc(-c2ccc(OCCCCCOc3ccc(C(=N)NO)cc3)cc2)c(N2CCOCC2)s1 [Compound 286, N-hydroxy-4-{5-[4-(2-methyl-5-morpholin-4-yl-thiazol-4-yl)-phenoxy]-pentyloxy}-benzamidine] | 29 ± 4.1^b % | 26 ± 1.5^ac % | 43 ± 6.1 | – |
| CCN(CCN1CCOCC1)c1nc(-c2ccc(OCCCCCOc3ccc(C(=N)NO)cc3)cc2)c(C)s1 [Compound 124, N-hydroxy-4-[5-(4-{2-[ethyl-1-(2-morpholinoethyl)-amino]-5-methyl-1,3-thiazol-4-yl}phenoxy)pentyloxy]-benzamidine] | 21 ± 4.3^ab % | 17 ± 5.2^ac % | – | 49 ± 3.0 |
| CCCCCc1nc(-c2ccc(OCCCCCOc3ccc(C(=N)NO)cc3)cc2)c(C)s1 [Compound 15, N-hydroxy-4-{5-[4-(5-methyl-2-pentyl-1,3-thiazol-4-yl)phenoxy]pentyloxy}-benzamidine] | 43 ± 11.4% | 45 ± 9.2^ac % | 69 ± 5.5 | – |
| Cc1nc(-c2ccc(OCCCCCNc3ccc(C(=N)NO)cc3)cc2)c(C(C)C)s1 [Compound 177, N-hydroxy-4-{5-[4-(5-isopropyl-2-methyl-1,3-thiazol-4-yl)-phenoxy]-pentylamino}-benzamidine] | 34 ± 10.2^ab % | 34 ± 5.7^ac % | 74 ± 10.1 | – |
| N=C(NO)c1ccc(OCCCCCOc2ccc(-c3nc(-c4ccccc4)sc3CCN3CCOCC3)cc2)cc1 [Compound 254, N-hydroxy-4-(5-{4-[5-(2-morpholin-4-yl-ethyl)-2-phenyl-thiazol-4-yl]-phenoxy}-pentyloxy)-benzamidine] | 29 ± 6.3^b % | 11 ± 2.5^ac % | 40 ± 8.3 | – |
| N=C(NO)c1ccc(OCCCCCOc2ccc(-c3nc(C4CCCCC4)sc3CCNCCN3CCOCC3)cc2)cc1 [Compound 248, N-hydroxy-4-[5-(4-{2-cyclohexyl-5-[2-(2-morpholin-4-yl-ethylamino)-ethyl]-thiazol-4-yl}-phenoxy)-pentyloxy]-benzamidine] | 33 ± 5.6^b % | 27 ± 4.9^ac % | 49 ± 8.7 | – |
| Cc1nc(-c2ccc(OCCCCCOc3ccc(C(=N)NO)c(O)c3)cc2)c(C(C)C)s1 [Compound 188, 2,N-dihydroxy-4-{5-[4-(5-isopropyl-2-methyl-1,3-thiazol-4-yl)-phenoxy]-pentyloxy}-benzamidine] | 35 ± 3.2^ab % | 23 ± 5.1^ac % | 56 ± 5.4 | – |
| N=C(NO)c1ccc(OCCCCCOc2ccc(-c3nc(-c4ccccc4)sc3Cc3ccccc3)cc2)cc1 [Compound 40, N-hydroxy-4-{5-[4-(5-benzyl-2-phenyl-1,3-thiazol-4-yl)phenoxy]pentyloxy}-benzamidine] | 28 ± 4.1^ab % | 20 ± 3.4^ac % | 66 ± 7.1 | – |
| Cc1sc(NC(=N)N)nc1-c1ccc(OCCCCCOc2ccc(C(=N)NO)cc2)cc1 [Compound 59, N-hydroxy-4-{5-[4-(2-guanidino-5-methyl-1,3-thiazol-4-yl)phenoxy]pentyloxy}-benzamidine] | 34 ± 2.2^ab % | 33 ± 5.1^ac % | 55 ± 6.5 | – |
| CCc1sc(N(CCO)CCO)nc1-c1ccc(OCCCCCOc2ccc(C(=N)NO)cc2)cc1 [Compound 139, N-hydroxy-4-[5-(4-{2-[bis-(2-hydroxyethyl)amino]-5-ethyl-1,3-thiazol-4-yl}phenoxy)pentyloxy]-benzamidine] | 49 ± 7.8% | 38 ± 6.9^ac % | 64 ± 4.6 | – |
| Cc1nc(-c2ccc(OCCCCCOc3ccc(C(=N)NO)cc3)cc2)c(CCN2CC(C)OC(C)C2)s1 (stereo not drawn) [Compound 227, N-hydroxy-4-[5-(4-{5-[2-(2,6-dimethyl-morpholin-4-yl)-ethyl]-2-methyl-thiazol-4-yl}-phenoxy)-pentyloxy]-benzamidine] | 24 ± 5.0^ab % | 17 ± 4.4^ac % | 42 ± 4.6 | – |
| CCCCc1sc(N(C)C)nc1-c1ccc(OCCCCCOc2ccc(C(=N)NO)cc2)cc1 [Compound 152, N-hydroxy-4-{5-[4-(5-butyl-2-dimethylamino-1,3-thiazol-4-yl)phenoxy]pentyloxy}-benzamidine] | 46 ± 8.8^b % | 48 ± 4.9^ac % | 65 ± 2.2 | – |
| N=C(NO)c1ccc(OCCCCCOc2ccc(-c3nc(N4CCCCC4)sc3CC3CCCC3)cc2)cc1 [Compound 167, N-hydroxy-4-{5-[4-(5-cyclopentylmethyl-2-piperidino-1,3-thiazol-4-yl)phenoxy]pentyloxy}-benzamidine] | 25 ± 1.9^b % | 31 ± 7.6^ac % | 72 ± 9.8 | – |
| CCCNCc1sc(C)nc1-c1ccc(OCCCCCOc2ccc(C(=N)NO)cc2)cc1 [Compound 301, N-hydroxy-4-{5-[4-(2-methyl-5-propylaminomethyl-thiazol-4-yl)-phenoxy]-pentyloxy}-benzamidine] | 10 ± 2.3^ab % | 6 ± 2.3^ac % | 49 ± 5.1 | – |
